In brackets after ≈: the same amount, converted by molar mass.
Tested on: Staphylococcus aureus
Assay: Antibacterial against Staphylococcus aureus
Format: functional
Settings: for MIC: Staphylococcus aureus

Row | Structure (SMILES) | -logMIC | MIC
1 | Oc1ccc(-c2nc(-c3ccc(Oc4ccccc4)c(F)c3)no2)cc1 | 3.774 | 8 µg/mL (≈ 23 µM)
2 | Fc1ccc(Oc2ccc(-c3noc(-c4c[nH]c5ncccc45)n3)cc2)cc1 | 1.068 | 128 µg/mL (≈ 344 µM)
3 | Fc1ccc(Oc2ccc(-c3noc(-c4n[nH]cc4Cl)n3)cc2)cc1Cl | 5.276 | 2 µg/mL (≈ 5.11 µM)
4 | Oc1ccc(-c2nc(-c3ccc(Oc4ccc(F)cc4)cc3)no2)cc1F | 5.21 | 
5 | c1ccc(Oc2ccc(-c3noc(-c4ccncc4)n3)cc2)cc1 | 0.902 | 128 µg/mL (≈ 406 µM)
6 | Nc1ccc(-c2nc(-c3ccc(Oc4ccc(C(F)(F)F)cc4)cc3)no2)cc1 | 5.985 | 
7 | CS(=O)(=O)Nc1ccc(-c2nc(-c3ccc(Oc4ccc(C(F)(F)F)cc4)cc3)no2)cc1 | 1.312 | 128 µg/mL (≈ 269 µM)
8 | CC(=O)N(C(C)=O)c1c[nH]nc1-c1nc(-c2ccc(Oc3ccc(C(F)(F)F)cc3)cc2)no1 | 1.304 | 128 µg/mL (≈ 272 µM)
9 | O=C(O)c1ccc(-c2nc(-c3ccc(Oc4ccc(F)cc4)cc3)no2)cc1 | 1.079 | 128 µg/mL (≈ 340 µM)
10 | Oc1ccc(-c2nc(-c3ccc(Oc4ccccc4)cc3)no2)cc1F | 4.467 | 
11 | O=[N+]([O-])c1cc(-c2nc(-c3ccc(Oc4ccc(F)cc4)cc3)no2)cnc1O | 3.898 | 
12 | O=[N+]([O-])c1c[nH]c(-c2nc(-c3ccc(Oc4ccc(F)cc4)cc3)no2)c1 | 1.052 | 128 µg/mL (≈ 349 µM)
13 | Oc1ccc(-c2nc(-c3ccc(Oc4ccccc4CBr)cc3)no2)cc1 | 3.969 | 8 µg/mL (≈ 18.9 µM)
14 | O=C1COc2cc(-c3nc(-c4ccc(Oc5ccccc5)cc4)no3)ccc2N1 | 1.102 | 128 µg/mL (≈ 332 µM)
15 | Oc1ccc(-c2nc(-c3ccc(Oc4ccc(C(F)(F)F)cc4)cc3)no2)cc1F | 5.338 | 
16 | Oc1ccc(-c2nc(-c3ccc(Oc4cccc(Br)c4)cc3)no2)cc1 | 4.628 | 4 µg/mL (≈ 9.77 µM)
17 | NC(=O)c1ccc(-c2nc(-c3ccc(Oc4ccc(F)cc4)cc3)no2)cc1 | 1.158 | 128 µg/mL (≈ 341 µM)
18 | COc1ccc(-c2nc(-c3ccc(Oc4ccc(F)cc4)cc3)no2)cc1[N+](=O)[O-] | 1.158 | 128 µg/mL (≈ 314 µM)

Source: ChEMBL document CHEMBL3751781, “Three-dimensional QSAR analysis and design of new 1,2,4-oxadiazole antibacterials” (2016)
